Here are results for 10 molecules from ChEMBL document CHEMBL4431299 (Medchemcomm, 2016).

The target in experiment [1] is Mitogen-activated protein kinase 14 (Mus musculus, UniProt P47811). The experiment is described as follows: (§1) Inhibition of kinase tracer 199 binding to mouse inactive p38alpha (2 to 349 residues) expressed in Escherichia coli by microscale thermophoresis assay. Background: MST reads how a fluorescent partner responds to local heating, with and without ligand.
Experiment [2] concerns the target Mitogen-activated protein kinase 14 (Mus musculus) (UniProt P47811). The experiment is described as §1.

Active and inactive are the calls of the source. The rule behind the calls is not given here.

Sequence of Mitogen-activated protein kinase 14 (P47811 whole entry, the tested form may be a part): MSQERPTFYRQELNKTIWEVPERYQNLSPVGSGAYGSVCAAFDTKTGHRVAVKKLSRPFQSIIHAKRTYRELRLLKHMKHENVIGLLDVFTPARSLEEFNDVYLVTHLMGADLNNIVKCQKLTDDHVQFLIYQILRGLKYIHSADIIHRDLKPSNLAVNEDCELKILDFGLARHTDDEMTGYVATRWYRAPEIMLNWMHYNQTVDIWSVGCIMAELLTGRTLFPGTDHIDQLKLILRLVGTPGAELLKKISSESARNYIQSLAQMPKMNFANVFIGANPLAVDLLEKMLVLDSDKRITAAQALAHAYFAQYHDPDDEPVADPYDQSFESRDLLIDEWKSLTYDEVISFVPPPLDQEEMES
Sequence of Mitogen-activated protein kinase 14 (Mus musculus) (P47811 whole entry): as the sequence (P47811 whole entry, the tested form may be a part) above

For orientation: Ki means the equilibrium dissociation constant of an inhibitor or competing ligand from its target. Higher therefore signals weaker binding. As for `CC(C)(C)c1cc(NC(=O)Nc2ccc(Cl)cc2)n(-c2ccccc2)n1`, the affinity in experiment [1], expressed as Ki, was 100 nM.
Same read-out and setting: the figure for `Cc1cccc(-n2nc(C(C)(C)C)cc2NC(=O)Nc2ccc(Cl)cc2)c1` is 20 nM.
Regarding `CC(C)(C)c1cc(NC(=O)Nc2ccc(Cl)cc2)n(-c2ccc(F)cc2)n1`, the inhibition entry in experiment [2] was “Active”.
On the same count and under the same terms, in the case of `CC(C)(C)c1cc(NC(=O)Nc2ccc(Cl)cc2)n(-c2ccc(Cl)cc2)n1` it was “Active”; in that of `CC(C)(C)c1cc(NC(=O)Nc2ccc(Cl)cc2)n(-c2ccccc2F)n1`, “Active”; in that of `COc1ccccc1-n1nc(C(C)(C)C)cc1NC(=O)Nc1ccc(Cl)cc1`, “inactive”.
`Cc1ccccc1-n1nc(C(C)(C)C)cc1NC(=O)Nc1ccc(Cl)cc1` came in with a Ki in experiment [1] of 730 nM.
For the molecule `COc1ccc(-n2nc(C(C)(C)C)cc2NC(=O)Nc2ccc(Cl)cc2)cc1`, the inhibition entry in experiment [2] is “Active”.
On the same count and under the same terms, in the case of `CC(C)(C)c1cc(NC(=O)Nc2ccc(Cl)cc2)n(-c2ccccc2Cl)n1` it was “inactive”.
`Cc1ccc(-n2nc(C(C)(C)C)cc2NC(=O)Nc2ccc(Cl)cc2)cc1`: the Ki in experiment [1] is 30 nM.
